The molecules below were run on Wnt activity (wnt-responsive SP5 promoter luciferase reporter in SW480 cells) (assay: Wnt activity reporter assay (SP5 promoter-firefly luciferase in SW480 cells)). Details: Homo sapiens; SW480 colon cancer cells with SP5 promoter luciferase reporter; 24 h after compound addition; half-log dilutions, three micromolar top concentration; normalized to DMSO; read-out: Wnt inhibition.
Format: cell-based
Outline: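 SW480 cells (APC-mutant) stably carried a lentiviral SP5-promoter (eight TCF/LEF sites) firefly luciferase reporter. Signals were normalized to DMSO-only cells to derive IC50.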
`c1cc(-c2ccoc2)c2nc(-c3n[nH]c4ccc(-c5cncc(CN6CCCCC6)c5)cc34)[nH]c2c1` [Compound 279, 3-(4-(Furan-3-yl)-1H-benzo[d]imidazol-2-yl)-5-(5-(piperidin-1-ylmethyl)pyridin-3-yl)-1H-indazole] showed an IC50 of 0.418 µM.
`CCCC(=O)Nc1cncc(-c2ccc3[nH]nc(-c4nc5c(-c6ccoc6)cccc5[nH]4)c3c2)c1` [Compound 281, N-(5-(3-(4-(Furan-3-yl)-1H-benzo[d]imidazol-2-yl)-1H-indazol-5-yl)pyridin-3-yl)butyramide] gave an IC50 of 0.025 µM.
In the case of `O=C(Nc1cncc(-c2ccc3[nH]nc(-c4nc5c(-c6ccoc6)cccc5[nH]4)c3c2)c1)C1CC1` [Compound 283, N-(5-(3-(4-(Furan-3-yl)-1H-benzo[d]imidazol-2-yl)-1H-indazol-5-yl)pyridin-3-yl)cyclopropanecarboxamide], the IC50 is reported as 0.057 µM.

— US10654832B2, “3-(benzoimidazol-2-YL)-indazole inhibitors of the Wnt signaling pathway and therapeutic uses thereof” (Samumed, LLC, priority 2013, dated 2020)
